Structures can show the parent of a compound that is named as a salt. Where two headings read alike, the source gives them in different places.
Columns and labels:
MAO-A [1] = test: Inhibition of MAO activity ex vivo (brain tissue), 5-HT substrate; format: in vivo, mice; conditions: mouse brain tissue
Description: (§1) Male Sabra mice, weighing 45-50g were injected with test compound solutions (prepared in 0.9% saline). Each dose was administered to two or three mice. The mice were sacrificed two hours after drug administration or at a time corresponding to the peak AChE inhibition time (see Table 6). The brain and liver were rapidly dissected and stored in appropriate vials on ice. The tissues were weighed, diluted to 1/20 in sucrose 0.3M and stored at -20°C before performance of the MAO assay described above. The results given in Table 6 relate to measurements made on brain tissue only.

[2] = Acute toxicity in mice (sub-cutaneous, lethality within 6 hours); conditions: mouse, in vivo, sc; for selectivity ratio: LD50 divided by ED50 (acetylcholine esterase ex vivo), read-out: Therapeutic Ratio (LD/AC); for LD50 at 6 h: sub-cutaneous, mice, within 6 hours
Description: Drugs were administered sub-cutaneously in at least 3 doses, to a minimum of 10 mice per dose. […] Therapeutic Ratio was calculated as LD50 divided by ED50(acetylcholine esterase ex vivo).

[3] = target: T1, Human erythrocyte acetylcholinesterase (Homo sapiens, UniProt P22303); test: In vitro measurement of acetylcholinesterase (AChE) inhibition (Ellman method); format: biochemical; conditions: at time of peak activity, incubation 15 to 60 minutes at 37°C
T1 construct: Human erythrocyte acetylcholinesterase (type XIII, Sigma Israel); purchased Sigma Israel type XIII; host or cells: human erythrocytes
T1 sequence (P22303 32-617 isoform P22303-2 limits assumed): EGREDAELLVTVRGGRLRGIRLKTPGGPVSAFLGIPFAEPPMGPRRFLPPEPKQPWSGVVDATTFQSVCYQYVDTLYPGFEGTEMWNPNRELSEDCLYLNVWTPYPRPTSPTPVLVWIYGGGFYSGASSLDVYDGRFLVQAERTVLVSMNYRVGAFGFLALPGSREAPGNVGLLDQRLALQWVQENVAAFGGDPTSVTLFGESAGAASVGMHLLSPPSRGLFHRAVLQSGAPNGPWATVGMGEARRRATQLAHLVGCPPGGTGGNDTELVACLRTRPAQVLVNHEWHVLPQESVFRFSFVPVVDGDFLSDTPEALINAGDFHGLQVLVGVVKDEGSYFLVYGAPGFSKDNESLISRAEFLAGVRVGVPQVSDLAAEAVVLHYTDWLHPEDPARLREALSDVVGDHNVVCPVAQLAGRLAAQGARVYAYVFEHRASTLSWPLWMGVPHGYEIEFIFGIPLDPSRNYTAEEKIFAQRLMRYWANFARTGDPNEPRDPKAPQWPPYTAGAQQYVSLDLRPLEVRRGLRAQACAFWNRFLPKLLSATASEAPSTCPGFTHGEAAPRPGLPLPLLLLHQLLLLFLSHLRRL
Description: Human erythrocyte acetylcholinesterase (type XIII, Sigma Israel), was prepared in a stock solution of 1U/ml, containing Triton (1%) and bovine serum albumin (0.05%) in phosphate buffer (pH 8). The enzyme (0.05U) was incubated with 3-5 different concentrations of test compound (in triplicate) for periods of from 15 to 60 minutes at 37°C. […] The percentage inhibition of AChE by each concentration of drug is calculated by comparison with that of enzyme in the absence of drug.

whole brain AChE = target: T2, whole brain AChE (Mus musculus, UniProt P21836); test: Ex vivo measurement of brain AChE inhibition after sub-cutaneous administration; format: in vivo, mice; conditions: for ED50: sc, sub-cutaneous, mouse whole brain, at peak of activity, read-out: AChE Inhibition Ex vivo ED50 (AC)
T2 construct: the brains rapidly removed (minus cerebellum), weighed and homogenized in 0.1M phosphate buffer pH 8.0; from tissue; host or cells: mouse brain (minus cerebellum) homogenate supernatant
T2 sequence (P21836 32-614): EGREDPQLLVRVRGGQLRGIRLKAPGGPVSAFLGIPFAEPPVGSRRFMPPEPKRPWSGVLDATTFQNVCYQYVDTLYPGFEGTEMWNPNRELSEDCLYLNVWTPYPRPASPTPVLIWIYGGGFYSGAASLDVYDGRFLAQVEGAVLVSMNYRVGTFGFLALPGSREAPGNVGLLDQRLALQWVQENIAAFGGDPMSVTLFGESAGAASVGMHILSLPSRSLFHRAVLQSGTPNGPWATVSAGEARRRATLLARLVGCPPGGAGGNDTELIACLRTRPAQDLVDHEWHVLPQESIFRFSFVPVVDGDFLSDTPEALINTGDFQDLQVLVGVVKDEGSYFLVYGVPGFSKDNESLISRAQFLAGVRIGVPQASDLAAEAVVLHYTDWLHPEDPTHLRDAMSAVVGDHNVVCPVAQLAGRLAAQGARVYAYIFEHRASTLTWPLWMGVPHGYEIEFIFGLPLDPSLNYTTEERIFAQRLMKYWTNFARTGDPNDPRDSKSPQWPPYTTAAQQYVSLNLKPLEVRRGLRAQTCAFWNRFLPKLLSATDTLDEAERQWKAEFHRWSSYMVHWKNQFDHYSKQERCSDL
Description: Test drugs or saline were administered sub-cutaneously to male mice (Sabra strain, 28-35g). At least 4-5 mice were used per dose and a minimum of 3 doses per drug were tested. The mice were sacrificed 15, 30, 60, 70, 90, 120 or 180 minutes after drug administration, the brains rapidly removed (minus cerebellum), weighed and homogenized in 0.1M phosphate buffer pH 8.0, containing Triton (1mg/100g tissue) and centrifuged to remove cell debris. Aliquots (25 µl) of the supernatant were then incubated with acetylthiocholine and DTNB. AChE activity measured as described above. The % inhibition of whole brain AChE by each dose of drug was calculated by comparison with enzyme activity from 3 saline treated control mice run at the same time.

MAO-B = test: Inhibition of MAO activity ex vivo (brain tissue), PEA substrate; format: in vivo, mice; conditions: mouse brain tissue
Description: as §1

MAO-A [4] = target: T3, MAO-A (Rattus norvegicus, UniProt P21396); test: Inhibition of MAO activity in vitro, rat brain homogenate, 5-HT substrate
T3 sequence (P21396 1-526): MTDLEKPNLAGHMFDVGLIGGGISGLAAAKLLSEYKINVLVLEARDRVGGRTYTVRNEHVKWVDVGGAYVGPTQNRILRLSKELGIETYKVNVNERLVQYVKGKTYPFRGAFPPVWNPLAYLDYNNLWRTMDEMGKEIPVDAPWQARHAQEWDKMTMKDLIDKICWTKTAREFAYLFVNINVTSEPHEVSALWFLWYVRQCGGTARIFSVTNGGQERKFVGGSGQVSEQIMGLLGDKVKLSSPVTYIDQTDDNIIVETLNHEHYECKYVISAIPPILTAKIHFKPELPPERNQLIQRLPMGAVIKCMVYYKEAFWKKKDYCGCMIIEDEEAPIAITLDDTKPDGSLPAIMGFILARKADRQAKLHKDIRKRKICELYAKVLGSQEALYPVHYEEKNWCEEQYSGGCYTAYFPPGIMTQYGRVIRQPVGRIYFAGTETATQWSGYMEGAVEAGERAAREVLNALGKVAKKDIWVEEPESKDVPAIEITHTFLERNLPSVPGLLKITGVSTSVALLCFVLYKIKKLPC
Description: The MAO enzyme source was a homogenate of rat brain in 0.3M sucrose, which was centrifuged at 600G for 15 minutes. The supernatant was diluted appropriately in 0.05M phosphate buffer, and pre-incubated with serial dilutions of test compounds for 20 minutes at 37°C. ^14C-Labeled substrates (2-phenylethylamine, hereinafter PEA; 5-hydroxytryptamine, hereinafter 5-HT) were then added, and the incubation continued for a further 20 minutes (PEA), or 30-45 minutes (5-HT). Substrate concentrations used were 50µM (PEA) and 1mM (5-HT). In the case of PEA, enzyme concentration was chosen so that not more than 10% of the substrate was metabolized during the course of the reaction. The deaminated products were extracted into toluene-ethyl acetate (1:1, v/v) containing 0.6% (w/v) 2,5-diphenyloxazole prior to determination by liquid scintillation counting. Radioactivity in the eluate indicates the production of neutral and acidic metabolites formed as a result of MAO activity. Activity of MAO in the sample was expressed as a percentage of control activity in the absence of inhibitors after subtraction of appropriate blank values The activity determined using PEA as substrate is referred to as MAO-B, and that determined using 5-HT as MAO-A.

mice = test: Survival time of mice in hypobaric hypoxic episode; format: in vivo
Text: The model is based on that described in Nakanishi, M. et al. Life Sci. (1973) 13: 467; Oshiro, et al., J. Med. Chem. (1991) 34: 2004-2013; and US Patent 4,788,130.
A 12 liter desiccator (desiccator A) and a 2.5 liter desiccator (desiccator B) were separately connected to a vacuum pump. Desiccator B was disconnected and allowed to equilibrate with room air whilst desiccator A was evacuated to a pressure of 100mmHg. Four male ICR albino mice (22-28g) were placed in desiccator B. Desiccator B was then closed to room air and connected to desiccator A. The pressure inside desiccator B was monitored using a mercury manometer and at the point the pressure in desiccator B reached 200mmHg (usually within 14 seconds), the two desiccators were disconnected from the vacuum pump and the pump switched off. The survival time from the moment of induction of hypoxia to the time of cessation of respiration was recorded. for each mouse for a maximum of 15 minutes after which time room air was reintroduced to desiccator B. Survivors were monitored for signs of lethargy or vitality.
Effect of drug treatment was assessed as the percent of the survival time of the drug treated group with respect to the saline injected or vehicle injected control group. Control groups were run twice, before and after each experimental group and consisted of 8 mice in groups of 4 mice to ensure a constant residual volume of oxygen in all tests. The effect of each dose of test drug was determined in duplicate i.e. two groups of 4 mice.
Positive reference drugs were sodium pentobarbital at a dose of 40 mg/kg, and diazepam 10 mg/kg given 0.5h prior to hypoxia, physostigmine 0.2 and 0.4 mg/kg and neostigmine 0.2 mg/kg given sc 30 min before hypoxia. Methyl atropine 1 mg/kg was given sc. 10 min. before physostigmine.
The volume of injection was 0.2-0.3 mL per mouse (10 mL/kg). The initial dose was about one third of the reported LD50 for acetylcholine esterase inhibition. If no protection could be obtained, the dose was further increased to the nearest non-toxic dose. In case of protection, the dose was further reduced in an attempt to locate the "protective" dose range.

Row | SMILES | MAO-A Inhibition Ex vivo ED50 (MAO-A [1]) | LD50 at 6 h [2] [µmol/kg] | IC50 [3] [µM] | ED50 (whole brain AChE) [µmol/kg] | MAO-B Inhibition Ex vivo ED50 (MAO-B) | IC50 (MAO-A [4]) [µM] | also measured
1 | C#CCN(C)C(C)Cc1cccc(OC(=O)N(C)C2CCCCC2)c1 (racemic) [Compound 28, (rac)-3-(N-methyl,N-cyclohexyl-carbamyloxy)-α-methyl-N'-methyl, N'-propargyl phenethylamine HCl] | 109 µmol/kg | 2000 | 11.5 | 21 | 1.75 µmol/kg | 1.7 | selectivity ratio [2]: > 47; Time to peak activity t (whole brain AChE; AChE inhibition): 60 min
2 | CN(C)C(=O)Oc1cccc(CCN)c1 [Compound 1] | – | – | 0.31 | – | – | 100 | –
3 | C#CCNC(C)Cc1cccc(OC(=O)N(C)CCC)c1 (racemic) [Compound 19, (rac)-3-(N-methyl,N-propyl-carbamyloxy)-α-methyl-N'-propargyl phenethylamine HCl] | >70 µmol/kg | 1300 | 20 | 170 | 1.5 µmol/kg | 14.6 | selectivity ratio [2]: 7.6; Time to peak activity t (whole brain AChE; AChE inhibition): 30 to 60 min; Protection (% of control) (mice; 25 mg/kg sc, 60 min before hypoxia): 169±50 % of control; Protection (% of control) (mice; 50 mg/kg sc, 60 min before hypoxia): 309±253 % of control; Protection (% of control) (mice; 75 mg/kg sc, 60 min before hypoxia): 773±228 % of control
4 | C#CC(C)NCCc1cccc(OC(=O)N(C)C)c1 (centres unmarked) [Compound 29] | >>12.5 µmoles/kg | – | 0.15 | 2.5 | >>12.5 µmoles/kg | – | –
5 | C#CC(C)NCCc1cccc(OC(=O)N(C)CC)c1 (centres unmarked) [Compound 30] | >>270 µmoles/kg | – | 14 | 45 | >>270 µmoles/kg | – | –
6 | C#CCNC(C)Cc1cccc(OC(=O)N(C)C2CCCCC2)c1 (centres unmarked) [Compound 36] | – | – | 3.4 | > 50 | – | – | –
7 | C#CCN(C)C(C)Cc1cccc(OC(=O)N(C)CCC)c1 (racemic) [Compound 35] | – | – | 50 | > 200 | – | – | –
8 | CCN(C)C(=O)Oc1cccc(CCNC)c1 [Compound 5] | >>160 µmoles/kg | – | 20.8 | – | >>160 µmoles/kg | 25 | –
9 | C#CCN(C)C(C)Cc1cccc(OC(=O)N(C)CCCCCC)c1 (racemic) [Compound 27, (rac)-3-(N-methyl,N-hexyl-carbamyloxy)-α-methyl-N'-methyl, N'-propargyl phenethylamine mesylate] | >430 µmol/kg | > 1000 | 3.1 | > 50 | 3.4 µmol/kg | 20 | –
10 | C#CCN(C)[C@@H](C)Cc1cccc(OC(=O)N(C)CCCCCC)c1 [Compound 38, (S)-3-(N-methyl, N-hexyl-carbamyloxy)-α-methyl-N'-methyl,N'-propargyl phenethylamine ethanesulfonate] | – | – | 3.1 | > 50 | – | – | –
11 | CNCCc1cccc(OC(=O)N(C)C)c1 [Compound 3] | – | 57.7 | 0.31 | 39.2 | – | 50 | selectivity ratio [2]: 1.5; Time to peak activity t (whole brain AChE; AChE inhibition): 10 min; Time to return to 50% of peak t (whole brain AChE; AChE inhibition): 30 min
12 | CCN(C)C(=O)Oc1cccc(CCN)c1 [Compound 4] | – | – | 48.4 | – | – | 200 | –
13 | CN(C)CCc1cccc(OC(=O)N(C)C)c1 [Compound 10] | – | 16 | 0.2 | 2 | – | – | selectivity ratio [2]: 8; Time to peak activity t (whole brain AChE; AChE inhibition): 15 to 30 min; IC50 (MAO-A [4]; read-out: MAO-A Inhibition In vitro IC50, rat brain homogenate, 5-HT 1mM): 51 µM
14 | CN1C(=O)CN=C(c2ccccc2)c2cc(Cl)ccc21 [Diazepam, diazepam, reference compound] | – | – | – | – | – | – | Protection (% of control) (mice; 10 mg/kg, 30 min before hypoxia): 316±78 % of control
15 | CCCC(C)C1(CC)C(=O)NC(=O)NC1=O (centres unmarked) [Nembutal, sodium pentobarbital, reference compound] | – | – | – | – | – | – | Protection (% of control) (mice; 40 mg/kg, 30 min before hypoxia): 253±200 % of control
